Measurements reported in PubChem BioAssay AID2060325 (Molecular Pharmacology Branch, DTP, NCI, 2025).
pIC50: −log10 of the molar value.

System: SK-OV-3 multi-cell spheroids, viability
Assay: Anticancer human tumor SK-OV-3 cell line growth inhibition [IpAb];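 as to viability, T/C: viability read after seven days of drug exposure; percent of DMSO vehicle control luminescence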
Conditions: for pIC50: curve of first compound; for viability, T/C: stronger effect = lower value
From the text: Combinatorial screen of targeted agents with ipatasertib and abemaciclib in multi-cell type tumor spheroids
A high-throughput screen of multi-cell type tumor spheroids was designed to identify active combinations of targeted small molecules and ipatasertib or abemaciclib. Complex spheroids include a stromal component modeled by human endothelial cells (HUVEC) and fibroblasts modeled by human mesenchymal stem cells (MSCs). The concentration ranges selected for each drug and investigational agent were based upon clinically achievable concentrations if the clinical Cmax of the agent was known.
Compounds. The drugs and investigational agents: ipatasertib (NSC767898), abemaciclib(NSC768073), selumetinib (NSC741078), trametinib (758246), adavosertib (NSC754352), everolimus (NSC733504), sapanisertib (NSC764658), vemurafenib (NSC761431), venetoclax (NSC766270), copanlisib (NSC809693), apelisib (NSC765974), palbociblib (NSC758247), vemurafenib (NSC761431), dabrafenib (NSC764134), ravoxertinib (NSC781343), BMS-387032 (NSC767048), sotorasib (NSC818433), talazoparib (NSC767125) and afursertib (NSC778305), were obtained from the National Cancer Institute (NCI) Developmental Therapeutics Program Chemical Repository. The FDA-approved anticancer drug set is available from the NCI Developmental Therapeutics Program. […] The stock solutions were prepared in dimethyl sulfoxide (DMSO, Sigma-Aldrich, St. Louis, MO, cat. D2650) at 800-fold the tested concentration and stored at -70 degrees C prior to their use. All drugs and investigational agents were tested over a range starting from a high concentration at or near the clinical Cmax and decreasing in half-log increments. If the clinical Cmax for an agent had not been determined, the highest concentration tested was 10 microM.
NCI60 Cell Culture. NCI60 cell lines were obtained from the NCI Developmental Therapeutics Program Tumor Repository. For each lot of cells, the Repository performed Applied Biosystems AmpFLSTR Identifiler testing with PCR amplification to confirm consistency with the published Identifier STR profile for each cell line. Cells were kept in continuous culture for no more than 20 passages. The optimal seeding densities for each of the cell lines at each time point assessed were determined prior to performing the concentration response studies. Briefly, the NCI60 human tumor lines were grown as monolayers in RPMI 1640 medium supplemented with 10% FBS and 2 mmol/L L-glutamine.
An additional 9 lines were from the NCI60 cell line panel including MDA-MB-231 breast carcinoma, MDA-MB-468 breast carcinoma, MCF7 breast carcinoma, Hs578T breast carcinoma, MALME-3M melanoma, SK-MEL-2 melanoma, SK-OV-3 ovarian carcinoma, DU-145 prostate carcinoma, PC-3 prostate carcinoma, all cell lines along with major genetic alterations are listed on Table 2. Pooled donor human umbilical vein endothelial cells (HUVEC, Lonza, cat. CC-2519) and human mesenchymal stem cells (hMSC, Lonza, cat. PT-2501) were purchased from Lonza (Walkersville, MD).
PDMR cell lines were grown in complete medium (DC medium): Dulbecco's modified Eagle's medium (DMEM)/F12 supplemented with 5% fetal bovine serum (FBS), 2 mM L-glutamine, 100 U/mL penicillin and 100 µg/ml streptomycin, 0.4 µg/ml hydrocortisone, 10 ng/ml epidermal growth factor (EGF) recombinant human protein, 24 µg/mL adenine, and 0.1 mg/mL primocin. During culture from frozen stock vials, PDMR cells were cultured in the same medium containing 10 µM Y-27632 (see Table 3). The PDCs were cultured in complete DMEM/F12 media without 10 microM Y-27632 dihydrochloride for at least two passages prior to the screen. The pooled donor HUVEC and hMSC were cultured in endothelial cell growth medium 2 (PromoCell, Heidelberg, Germany, cat. C-22011) and mesenchymal stem cell growth medium 2 (PromoCell, cat. C-28009), respectively. For all experiments, HUVEC and hMSC were used at passages </=5.
[…]

[1] = second compound 0.1 µM, first compound 0.0316 µM
[2] = second compound 0.1 µM, first compound 0.1 µM
[3] = second compound 0.1 µM, first compound 0.316 µM
[4] = second compound 0.1 µM, first compound 1 µM
[5] = second compound 0.316 µM, first compound 0.0316 µM
[6] = second compound 0.316 µM, first compound 0.1 µM
[7] = second compound 0.316 µM, first compound 0.316 µM
[8] = second compound 0.316 µM, first compound 1 µM
[9] = second compound 1 µM, first compound 0.0316 µM
[10] = second compound 1 µM, first compound 0.1 µM
[11] = second compound 1 µM, first compound 0.316 µM
[12] = second compound 1 µM, first compound 1 µM

COc1c(OCCCN2CCOCC2)ccc2c3n(c(=NC(=O)c4cnc(N)nc4)nc12)CCN3 + CC(C)NCC(C(=O)N1CCN(c2ncnc3c2C(C)CC3O)CC1)c1ccc(Cl)cc1 gave a pIC50 (second compound 0.1 µM) of 8.42, a pIC50 (second compound 0.316 µM) of over 8.50 and a pIC50 (second compound 1 µM) of over 8.50. For the same compound, the pIC50 (second compound 3.16 µM) was over 8.50, the pIC50 (second compound 10 µM) was over 8.50 and the viability, T/C (second compound 0.1 µM, first compound 0.00316 µM) was 53.7%. The viability, T/C (second compound 0.1 µM, first compound 0.01 µM) was 31.3%, the viability, T/C [1] was 12.1% and the viability, T/C [2] was 6.59%. It also gave a viability, T/C [3] of 5.28%, a viability, T/C [4] of 3.75% and a viability, T/C (second compound 0.316 µM, first compound 0.00316 µM) of 29.5%. It also gave a viability, T/C (second compound 0.316 µM, first compound 0.01 µM) of 18.4%, a viability, T/C [5] of 9.72% and a viability, T/C [6] of 7.09%. It also gave a viability, T/C [7] of 5.47%, a viability, T/C [8] of 3.33% and a viability, T/C (second compound 1 µM, first compound 0.00316 µM) of 17.3%. The viability, T/C (second compound 1 µM, first compound 0.01 µM) was 11%, the viability, T/C [9] was 8.59% and the viability, T/C [10] was 6.92%. It also gave a viability, T/C [11] of 4.3%, a viability, T/C [12] of 2.76% and a viability, T/C (second compound 3.16 µM, first compound 0.00316 µM) of 12.3%. The viability, T/C (second compound 3.16 µM, first compound 0.01 µM) was 9.35%, the viability, T/C (second compound 3.16 µM, first compound 0.0316 µM) was 8.55% and the viability, T/C (second compound 3.16 µM, first compound 0.1 µM) was 6.85%. For the same compound, the viability, T/C (second compound 3.16 µM, first compound 0.316 µM) was 4.48%, the viability, T/C (second compound 3.16 µM, first compound 1 µM) was 2.41% and the viability, T/C (second compound 10 µM, first compound 0.00316 µM) was 6.56%. It also gave a viability, T/C (second compound 10 µM, first compound 0.01 µM) of 5.87%, a viability, T/C (second compound 10 µM, first compound 0.0316 µM) of 5.36% and a viability, T/C (second compound 10 µM, first compound 0.1 µM) of 4.04%. The viability, T/C (second compound 10 µM, first compound 0.316 µM) was 2.89% and the viability, T/C (second compound 10 µM, first compound 1 µM) was 1.6%.
For Cn1nccc1Nc1nccc(-c2ccn(C(CO)c3ccc(Cl)c(F)c3)c(=O)c2)n1 (stereo not given) + CCN1CCN(Cc2ccc(Nc3ncc(F)c(-c4cc(F)c5nc(C)n(C(C)C)c5c4)n3)nc2)CC1, the pIC50 (second compound 0.01 µM) was 5.13, the pIC50 (second compound 0.0316 µM) was 5.17 and the pIC50 (second compound 0.1 µM) was 5.04. The pIC50 (second compound 0.316 µM) was 5.37, the pIC50 (second compound 1 µM) was over 7.50 and the viability, T/C (second compound 0.01 µM, first compound 0.0316 µM) was 84%. It also gave a viability, T/C (second compound 0.01 µM, first compound 0.1 µM) of 98.2%, a viability, T/C (second compound 0.01 µM, first compound 0.316 µM) of 105% and a viability, T/C (second compound 0.01 µM, first compound 1 µM) of 118%. It also gave a viability, T/C (second compound 0.01 µM, first compound 3.16 µM) of 91.6%, a viability, T/C (second compound 0.01 µM, first compound 10 µM) of 35.1% and a viability, T/C (second compound 0.0316 µM, first compound 0.0316 µM) of 71.3%. For the same compound, the viability, T/C (second compound 0.0316 µM, first compound 0.1 µM) was 80.8%, the viability, T/C (second compound 0.0316 µM, first compound 0.316 µM) was 84.4% and the viability, T/C (second compound 0.0316 µM, first compound 1 µM) was 102%. The viability, T/C (second compound 0.0316 µM, first compound 3.16 µM) was 74%, the viability, T/C (second compound 0.0316 µM, first compound 10 µM) was 38% and the viability, T/C [1] was 56.2%. For the same compound, the viability, T/C [2] was 55.9%, the viability, T/C [3] was 63.2% and the viability, T/C [4] was 69.6%. For the same compound, the viability, T/C (second compound 0.1 µM, first compound 3.16 µM) was 60.3%, the viability, T/C (second compound 0.1 µM, first compound 10 µM) was 34.3% and the viability, T/C [5] was 52.1%. For the same compound, the viability, T/C [6] was 55.9%, the viability, T/C [7] was 61.1% and the viability, T/C [8] was 58.8%. It also gave a viability, T/C (second compound 0.316 µM, first compound 3.16 µM) of 54.4%, a viability, T/C (second compound 0.316 µM, first compound 10 µM) of 36% and a viability, T/C [9] of 40.8%. For the same compound, the viability, T/C [10] was 48.9%, the viability, T/C [11] was 52.2% and the viability, T/C [12] was 60%. For the same compound, the viability, T/C (second compound 1 µM, first compound 3.16 µM) was 57% and the viability, T/C (second compound 1 µM, first compound 10 µM) was 40.2%.
